Laboratory results from US6586441B2, “Adenosine receptor ligands and their use in the treatment of disease” (Hoffman-La Roche Inc., priority 2000, dated 2003).

Molecular target: T1, human adenosine A2A receptor (Homo sapiens, UniProt P29274)
T1 construct: expressed in transfected cells; host or cells: CHO cells, semliki forest virus expression system; membrane preparation
Test: Human adenosine A2A receptor [3H]-SCH-58261 binding assay
Conditions: human A2a receptor, membranes of CHO cells, [3H]-SCH-58261; read-out: pKi (affinity to the human A2a receptor) (converted)
Experimental: The gene encoding human adenosine A2A receptor was recombinantly introduced and expressed in chinese hamster ovary (CHO) cells using the semliki forest virus expression system. Cells were harvested, washed twice by centrifugation, homogenised and again washed by centrifugation. The final washed membrane pellet was suspended in a Tris (50 mM) buffer containing 120 mM NaCl, 5 mM KCl, 2 mM CaCl2 and 10 mM MgCl2 (pH 7.4) (buffer A). The [^3H]-SCH-58261 (Dionisotti et al., 1997, Br. J. Pharmacol. 121, 353; 1 nM) binding assay was carried out in 96-well plates in the presence of 2.5 μg of membrane protein, 0.5 mg of Ysi-poly-1-lysine SPA beads and 0.1 U adenosine deaminase in a final volume of 200 μl of buffer A. Non-specific binding was defined using xanthine amine congener (XAC; […]). Compounds were tested at 10 concentrations from 10 μM-0.3 nM. All assays were conducted in duplicate and repeated at least two times. Assay plates were incubated for 1 hour at room temperature before centrifugation and then bound ligand determined using a Packard Topcount scintillation counter. IC50 values were calculated using a non-linear curve fitting program and Ki values calculated using the Cheng-Prussoff equation.

T1 sequence (P29274 whole entry): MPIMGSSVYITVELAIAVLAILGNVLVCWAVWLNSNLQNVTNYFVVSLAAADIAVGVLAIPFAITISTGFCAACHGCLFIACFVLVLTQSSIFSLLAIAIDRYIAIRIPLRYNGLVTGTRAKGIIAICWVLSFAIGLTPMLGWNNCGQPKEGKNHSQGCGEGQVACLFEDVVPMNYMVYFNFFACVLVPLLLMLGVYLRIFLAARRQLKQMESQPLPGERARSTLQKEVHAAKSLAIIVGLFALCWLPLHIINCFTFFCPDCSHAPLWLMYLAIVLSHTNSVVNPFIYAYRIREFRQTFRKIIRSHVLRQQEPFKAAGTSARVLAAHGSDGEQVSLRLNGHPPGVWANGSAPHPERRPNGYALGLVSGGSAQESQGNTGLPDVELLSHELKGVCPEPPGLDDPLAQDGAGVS

Ki | SMILES
9.33 nM | Nc1nc(OCC=Cc2ccccc2)c(Br)c(-c2ccco2)n1 [Example 280, 5-Bromo-4-furan-2-yl-6-(3-phenyl-allyloxy)-pyrimidin-2-yl-amine]
5.89 nM | N#Cc1c(NCc2ccccn2)nc(N)nc1-c1ccco1 [Example 283, 2-Amino-4-furan-2-yl-6-[(pyridin-2-ylmethyl)-amino]-pyrimidine-5-carbonitrile]
3.89 nM | N#Cc1c(SCc2ccccn2)nc(N)nc1-c1ccco1 [Example 284, 2-Amino-4-furan-2-yl-6-(pyridin-2-ylmethylsulfanyl)-pyrimidine-5-carbonitrile]
9.55 nM | Nc1nc(OCc2ccccc2)c([N+](=O)[O-])c(-c2ccco2)n1 [Example 286, 4-Benzyloxy-6-furan-2-yl-5-nitro-pyrimidin-2-yl-amine]
3.72 nM | Cc1cccc(CNc2nc(N)nc(-c3ccco3)c2C#N)c1 [Example 289, 2-Amino-4-furan-2-yl-6-(3-methyl-benzylamino)-pyrimidine-5-carbonitrile]
3.31 nM | COc1cccc(CNc2nc(N)nc(-c3ccco3)c2C#N)c1 [Example 291, 2-Amino-4-furan-2-yl-6-(3-methoxy-benzylamino)-pyrimidine-5-carbonitrile]
3.72 nM | COc1ccccc1CNc1nc(N)nc(-c2ccco2)c1C#N [Example 293, 2-Amino-4-furan-2-yl-6-(2-methoxy-benzylamino)-pyrimidine-5-carbonitrile]
1.38 nM | N#Cc1c(NCc2ccc3ccccc3n2)nc(N)nc1-c1ccco1 [Example 297, 2-Amino-4-furan-2-yl-6-[(quinolin-2-ylmethyl)-amino]-pyrimidine-5-carbonitrile]
7.76 nM | N#Cc1c(NCCSc2ccccc2)nc(N)nc1-c1ccco1 [Example 302, 2-Amino-4-furan-2-yl-6-(2-phenylsulfanyl-ethylamino)-pyrimidine-5-carbonitrile]
3.55 nM | N#Cc1c(NCc2ccccc2N)nc(N)nc1-c1ccco1 [Example 304, 2-Amino-4-(2-amino-benzylamino)-6-furan-2-yl-pyrimidine-5-carbonitrile]
8.91 nM | N#Cc1c(NCc2ccc(N)cc2)nc(N)nc1-c1ccco1 [Example 305, 2-Amino-4-(4-amino-benzylamino)-6-furan-2-yl-pyrimidine-5-carbonitrile]
9.77 nM | CN(C)c1ccc(CNc2nc(N)nc(-c3ccco3)c2C#N)cc1 [Example 312, 2-Amino-4-(4-dimethylamino-benzylamino)-6-furan-2-yl-pyrimidine-5-carbonitrile]
0.832 nM | N#Cc1c(SCCc2ccccn2)nc(N)nc1-c1ccco1 [Example 313, 2-Amino-4-furan-2—,yl-6-(2-pyridin-2-yl-ethylsulfanyl)-pyrimidine-5-carbonitrile]
2.82 nM | Nc1nc(OCCCc2ccccc2)c(Cl)c(-c2ccco2)n1 [Example 321, 5-Chloro-4-furan-2-yl-6-(3-phenyl-propoxy)-pyrimidin-2-yl-amine]
9.77 nM | Nc1nc(OCCc2ccccc2)c(Cl)c(-c2ccco2)n1 [Example 322, 5-Chloro-4-furan-2-yl-6-phenethyloxy-pyrimidin-2-yl-amine]
9.12 nM | Nc1nc(SCc2ccccc2)c(Cl)c(-c2ccco2)n1 [Example 324, 4-Benzylsulfanyl-5-chloro-6-furan-2-yl-pyrimidin-2-yl-amine]
7.94 nM | N#Cc1c(NCCNc2ccccn2)nc(N)nc1-c1ccco1 [Example 330, 2-Amino-4-furan-2-yl-6-[2-(pyridin-2-ylamino)-ethylamino]-pyrimidine-5-carbonitrile]
8.13 nM | N#Cc1c(-c2ccco2)nc(N)nc1N1CCc2ccccc2C1 [Example 336, 2-Amino-4-(3,4-dihydro-1H-isoquinolin-2-yl)-6-furan-2-yl-pyrimidine-5-carbonitrile]
6.61 nM | N#Cc1c(NCc2ccc3c(c2)OCO3)nc(N)nc1-c1ccco1 [Example 337, 2-Amino-4-[(benzo [1,3]dioxol-5-ylmethyl)-amino]-6-furan-2-yl-pyrimidine-5-carbonitrile]
2.4 nM | N#Cc1c(NCc2cccc(C(F)(F)F)c2)nc(N)nc1-c1ccco1 [Example 346, 2-Amino-4-furan-2-yl-6-(3-trifluoromethyl-benzylamino)-pyrimidine-5-carbonitrile]
1.66 nM | Cc1ccc(CNc2nc(N)nc(-c3ccco3)c2C#N)cc1C [Example 347, 2-Amino-4-(3,4-dimethyl-benzylamino)-6-furan-2-yl-pyrimidine-5-carbonitrile]
2.09 nM | Cc1ccnc(CNc2nc(N)nc(-c3ccco3)c2C#N)c1 [Example 348, 2-Amino-4-furan-2-yl-6-[(4-methyl-pyridin-2-ylmethyl)-amino]-pyrimidine-5-carbonitrile]

Ki | SMILES
5.13 nM | Nc1nc(SCCc2ccccn2)c(I)c(-c2ccco2)n1 [Example 352, 4-Furan-2-yl-5-iodo-6-(2-pyridin-2-yl-ethylsulfanyl)-pyrimidin-2-yl-amine]
3.8 nM | Nc1nc(SCCc2ccccn2)c(Br)c(-c2ccco2)n1 [Example 353, 5-Bromo-4-furan-2-yl-6-(2-pyridin-2-yl-ethylsulfanyl)-pyrimidin-2-yl-amine]
4.9 nM | Nc1nc(SCCc2ccccn2)c(Cl)c(-c2ccco2)n1 [Example 354, 5-Chloro-4-furan-2-yl-6-(2-pyridin-2-yl-ethylsulfanyl)-pyrimidin-2-yl-amine]
3.02 nM | N#Cc1c(OCc2ccccn2)cc(N)nc1-c1ccco1 [Example 355, 6-Amino-2-furan-2-yl-4-(pyridin-2-yl-methoxy)-nicotinonitrile]
0.912 nM | N#Cc1c(SCCc2ccccn2)cc(N)nc1-c1ccco1 [Example 356, 6-Amino-2-furan-2-yl-4-(2-pyridin-2-yl-ethylsulfanyl)-nicotinonitrile]
9.12 nM | N#Cc1c(NCc2ccc(C(F)(F)F)cc2)cc(N)nc1-c1ccco1 [Example 357]
0.631 nM | N#Cc1c(NCc2ccccc2Br)nc(N)nc1-c1ccco1 [Example 359, 2-Amino-4-(2-bromo-benzylamino)-6-furan-2-yl-pyrimidine-5-carbonitrile]
0.589 nM | N#Cc1c(NCc2ccccc2Cl)nc(N)nc1-c1ccco1 [Example 360, 2-Amino-4-(2-chloro-benzylamino)-6-furan-2-yl-pyrimidine-5-carbonitrile]
0.603 nM | Cc1cccnc1COc1nc(N)nc(-c2ccco2)c1C#N [Example 361, 2-Amino-4-furan-2-yl-6-(3-methyl-pyridin-2-yl-methoxy)-pyrimidine-5-carbonitrile]
2.63 nM | Cc1ccc(COc2nc(N)nc(-c3ccco3)c2C#N)nc1 [Example 362, 2-Amino-4-furan-2-yl-6-(5-methyl-pyridin-2-yl-methoxy)-pyrimidine-5-carbonitrile]
3.24 nM | Cc1ccc(CNc2nc(N)nc(-c3ccco3)c2C#N)nc1 [Example 363, 2-Amino-4-furan-2-yl-6-[(5-methyl-pyridin-2-yl-methyl)-amino]-pyrimidine-5-carbonitrile]
3.89 nM | N#Cc1c(NCc2ccc3ccccc3n2)cc(N)nc1-c1ccco1 [Example 364, 6-Amino-2-furan-2-yl-4-[(quinolin-2-ylmethyl)-amino]-nicotinonitrile]
1.82 nM | N#Cc1c(OCc2cc3ccccc3cn2)nc(N)nc1-c1ccco1 [Example 366, 2-Amino-4-furan-2-yl-6-(isoguinolin-3-yl-methoxy)-pyrimidine-5-carbonitrile]
2.29 nM | N#Cc1c(NCc2cc3ccccc3cn2)nc(N)nc1-c1ccco1 [Example 367, 2-Amino-4-furan-2-yl-6-[(isoguinolin-3-yl-methyl)-amino]-pyrimidine-5-carbonitrile]
1.86 nM | Cc1cccnc1CNc1nc(N)nc(-c2ccco2)c1C#N [Example 368, 2-Amino-4-furan-2-yl-6-[(3-methyl-pyridin-2-yl-methyl)-amino]-pyrimidine-5-carbonitrile]
8.91 nM | N#Cc1c(SCCc2ccccn2)nc(N)nc1-c1cccs1 [Example 370]
8.13 nM | N#Cc1c(NCc2ccccn2)cc(N)nc1-c1ccco1 [Example 371, 6-Amino-2-furan-2-yl-4-[(pyridin-2-yl-methyl)-amino]-nicotinonitrile]
5.13 nM | Cc1ccnc(COc2nc(N)nc(-c3ccco3)c2C#N)c1 [Example 373, 2-Amino-4-furan-2-yl-6-(4-methyl-pyridin-2-yl-methoxy)-pyrimidine-5-carbonitrile]
9.33 nM | C=Cc1ccc(CNc2nc(N)nc(-c3ccco3)c2C#N)cc1 [Example 374, 2-Amino-4-furan-2-yl-6-(4-vinyl-benzylamino)-pyrimidine-5-carbonitrile]
4.57 nM | Cc1cccnc1CNc1cc(N)nc(-c2ccco2)c1C#N [Example 376, 6-Amino-2-furan-2-yl-4-[(3-methyl-pyridin-2-yl-methyl)-amino]-nicotinonitrile]
7.76 nM | Cc1ccc(CNc2cc(N)nc(-c3ccco3)c2C#N)nc1 [Example 377, 6-Amino-2-furan-2-yl-4-[(5-methyl-pyridin-2-yl-methyl)-amino]-nicotinonitrile]
3.47 nM | Cc1ccc(COc2nc(N)nc(-c3ccco3)c2C#N)cn1 [Example 381, 2-Amino-4-furan-2-yl-6-(6-methyl-pyridin-3-yl-methoxy)-pyrimidine-5-carbonitrile]
